Results published in patent US10377800B2, “Myelin oligodendrocyte glycoprotein (MOG) peptide” (APITOPE TECHNOLOGY (BRISTOL) LIMITED, priority 2013, dated 2019).

Assays:
[1] = test system: MOG-specific hybridoma T cell clones; assay: Antigen processing independent presentation: peptides presented by live or p-formaldehyde fixed Mgar cells to T cell hybridoma clones, IL-2 production; assay type: cell-based, mice; conditions: FIG. 1; for identification as apitope: detailed study, overlapping peptides in region 25-60 displaced by one amino acid
From the text: A panel of 15-mer overlapping peptides spanning rhMOGED was synthesized using standard F-moc chemistry. […]
MOG-specific hybridoma T cell clones were generated by immunisation of DR2+ mice. DR2+ mice were immunised with either a pool of MOG overlapping peptides or rhMOGED in complete Freunds adjuvant (CFA). After 10 days, the spleen and draining lymph nodes were removed, CD4+ T cells were purified and restimulated with antigen/CFA in vitro. A week later, T cells were restimulated in vitro with antigen to increase the number of activated antigen-specific cells.
After 3 days, activated T cells were fused with the thymoma cell line BW 5147. Hybridoma clones were then selected using HAT selection medium and screened for peptide specificity by IL-2 ELISA.
Live or p-formaldehyde fixed Mgar (HLA-DR2+ve) cells were incubated with peptides in serum or in serum alone, together with T cells for 48 hours. The T cell proliferative response was measured by IL-2 production.

[2] = administered in solution; Anderton and Wraith (1998); cited from earlier work
[3] = target: T1, I-A^S (Mus musculus, UniProt P06345+P14437); conditions: cited from earlier work
T1 sequence (P14437 1-233): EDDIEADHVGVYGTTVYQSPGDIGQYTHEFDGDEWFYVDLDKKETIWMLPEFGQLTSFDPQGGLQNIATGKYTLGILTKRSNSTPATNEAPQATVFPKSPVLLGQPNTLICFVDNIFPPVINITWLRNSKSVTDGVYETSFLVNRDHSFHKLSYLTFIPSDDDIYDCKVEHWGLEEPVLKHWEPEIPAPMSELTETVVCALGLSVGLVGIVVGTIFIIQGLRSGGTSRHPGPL
T1 sequence (P06345 28-263): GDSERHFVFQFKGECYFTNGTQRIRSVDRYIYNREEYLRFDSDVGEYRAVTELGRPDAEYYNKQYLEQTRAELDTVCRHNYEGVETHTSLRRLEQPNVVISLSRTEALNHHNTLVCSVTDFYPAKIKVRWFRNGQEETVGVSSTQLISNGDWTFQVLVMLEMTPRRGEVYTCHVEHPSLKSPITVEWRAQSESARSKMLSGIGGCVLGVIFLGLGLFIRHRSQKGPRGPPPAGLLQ

[4] = test system: DR2 transgenic mice; assay: MOG-induced EAE model; assay type: in vivo; conditions: for Incidence (EAE) / Mean day of onset (EAE): Pertussis toxin day 0 and 2
Method: (§1) To test the capacity of ROK5 to prevent MOG-induced EAE in HLA-DR2 transgenic mice, the disease model was established in this strain of mice. To induce the disease, the encephalitogenic MOG peptide, mouse MOG 35-55 (mMOG35-55) was used. Then, ROK5 was tested in EAE prevention experiments as follows:
Two groups of DR2 transgenic mice were setup, at day zero, animals (n=7) in group “100 μg” received 100 μg mMOG35-55 in Complete Freund's Adjuvant (CFA) (100 μl, s.c., base of the tail injection), animals (n=8) in group “200 μg” received 200 μg mMOG35-55 in CFA. At day zero and day2, all animals received an injection of Pertussis toxin (200 ng in PBS, i.p.). Every day, clinical EAE was scored and animal body weight measured.

[5] = test system: HLA-DR2 transgenic mice; assay: Ex vivo tolerance assay: recall proliferation with MOG 35-55 after peptide pre-treatment and MOG 35-55/CFA challenge; conditions: 100 μg on days -8, -4 and -2; challenge 100 μg MOG 35-55 in CFA day 0; harvest day 10; FIG. 2
Method: (§2) HLA-DR2 transgenic mice were immunised with either 100 μg ROK5 (MOG 41-55), 100 μg MOG 35-55 or PBS on days −8, −4 and −2. On day 0, mice were challenged with 100 μg MOG 35-55 by injection in the tail base in combination with CFA.
On day 10, splenocytes and draining lymph nodes were harvested and their respective cell populations isolated and a recall proliferation assay was set up with MOG 35-55. Cells from individual mice were treated separately and data is plotted separately in FIG. 2. For the recall response cells were treated ex vivo with a dose range of MOG35-55 (100, 10, 1, 0.1, 0.01, 0 μg) and proliferation via ^3H-thymidine incorporation determined. Stimulation index (compared to proliferation with no antigen) was calculated for each condition.

[6] = test system: splenocytes; assay: Cytokine profiles of splenocyte supernatants after in vivo ROK5 pre-treatment, MOG35-55 immunisation and in vitro recall; design: species or system mice; conditions: ROK5 pretreatment vs PBS; FIG. 3
Method: as §2
The effect of ROK5 pre-treatment on various cytokine profiles was also investigated.

[7] = test system: HLA-DR2 transgenic mice; assay: ROK5 EAE prevention, first experiment (3 pre-treatments); assay type: in vivo; conditions: pretreated 3 times, FIG. 6; for severity of the disease induced by MOG (clinical EAE score): 3 days apart, 100 μg s.c. flank, EAE by 200 μg mMOG35-55
Method: as §1
Experiment 1: with 3 ROK5 dose pre-treatments, followed by immunisation with mMOG35-55.
(§3) In each experiment, 10 mice were used per group.
A first experiment was performed where animals were pretreated 3 times (3 days apart) with either mouse ROK5, human ROK5 or PBS, 100 μg in 100 μl in CFA (s.c. injection in the flank), then all animals were immunised with 200 μg mMOG35-55 in CFA (s.c. injection at the base of the tail) and with 200 ng Pertussis toxin (200 ng in PBS, i.p.) at day zero and day 2.
Every day, clinical EAE was scored and animal body weight measured.

[8] = test system: HLA-DR2 transgenic mice; assay: ROK5 EAE prevention, second experiment (5 pre-treatments); assay type: in vivo; conditions: pretreated 5 times, 3 days apart, 100 μg s.c. flank; EAE by 200 μg mMOG35-55; FIG. 7
Method: as §1
Experiment 2: with 5 ROK5 dose pre-treatments, followed by immunisation with mMOG35-55.
as §3
A second experiment was performed where animals were pretreated 5 times (3 days apart) with either human ROK5 or PBS, 100 μg in 100 μl in CFA (s.c. injection in the flank), then all animals were immunised with 200 μg mMOG35-55 in CFA (s.c. injection at the base of the tail) and with 200 ng Pertussis toxin (200 ng in PBS, i.p.) at day zero and day 2. Every day, clinical EAE was scored.

[9] = 100 μg mMOG35-55 in CFA s.c. base of tail, n=7
[10] = 200 μg mMOG35-55 in CFA s.c. base of tail, n=8

With “FSRVVHLYRNGKDQD (listed as Homo sapiens) [MOG 44-58, MOG peptide 44-58, apitope]” the identification as apitope [1] was “identified as apitopes”.

In the case of “MBP [89-101]: myelin basic protein peptide 89-101, immunodominant antigen, not tolerogenic (PHLIRLFSRDAPG; UniProt P04370 89-101, looked up, fragment)”, the induction of tolerance [2] is listed as “ineffective at inducing tolerance” and the “affinity of binding to I-A^S” value [3] is listed as “relatively high affinity”.

In the case of “MEVGWYRSPFSRVVHLYRNGK (listed as Mus musculus) [mMOG35-55, encephalitogenic MOG peptide used to induce EAE]”, the “Incidence (EAE)” value [4, 9] is reported as 4/7, the “Mean day of onset (EAE)” value [4, 9] is reported as 12.25 days and the “Incidence (EAE)” value [4, 10] is reported as 7/8. The “Mean day of onset (EAE)” value [4, 10] was 12 days and the “induction of EAE” value ([4]; both doses (100 μg and 200 μg), FIGS. 5A, 5B) was “can induce EAE with a good incidence”.

With “PFSRVVHLYRNGKDQ (listed as Homo sapiens) [MOG 43-57, MOG peptide 43-57, apitope]” the identification as apitope [1] was “identified as apitopes”.

With “RPPFSRVVHLYRNGK (listed as Homo sapiens) [ROK5, human MOG peptide 41-55, apitope]” the “presentation by fixed APC to T cells without further processing (apitope)” value ([1]; 15-mer peptides displaced by 5aa, fixed APC) was “could be presented by fixed APC to T cells without further processing”, the identification as apitope [1] was “identified as apitopes” and the “immune response to challenge with MOG 35-55 (recall proliferation, stimulation index)” value [5] was “able to suppress the immune response”. The “production of GM-CSF by splenocytes” value [6] was “clearly affected”, the “production of IFNγ by splenocytes” value [6] was “clearly affected” and the “production of IL6 by splenocytes” value [6] was “clearly affected”. For the same substance, the “production of IL-2 by splenocytes” value [6] was “clearly affected”, the “efficiency of human ROK5 compared with mouse ROK5 in reducing EAE severity” value ([7]; 100 μg) was “more efficient” and the “severity of the disease induced by MOG (clinical EAE score)” value [7] was “can reduce the severity of the disease”. The “peak of disease burden (timing)” value [8] was “caused a delay in the peak of disease burden” and the “severity of disease (clinical EAE score)” value [8] was “reduced the severity of disease”.

With “RSPFSRVVHLYRNGK (listed as Mus musculus) [mouse ROK5, mouse MOG 41-55, serine in position 42]” the “severity of the disease induced by MOG (clinical EAE score)” value [7] was “can reduce the severity of the disease”.

In the case of “SRVVHLYRNGKDQDG (listed as Homo sapiens) [MOG 45-59, MOG peptide 45-59, apitope]”, the identification as apitope [1] is reported as “identified as apitopes”.
